Biological target: T1, KV1.3 (Homo sapiens, UniProt P22001)
T1 construct: gene KCNA3; human KV1.3 channel (KV1.3-pEYFP) transiently transfected in HEK-293 cells
Test: whole-cell patch clamp of KV1.3-transfected HEK-293 cells
Assay type: cell-based
Settings: HEK293

T1 sequence (P22001 whole entry): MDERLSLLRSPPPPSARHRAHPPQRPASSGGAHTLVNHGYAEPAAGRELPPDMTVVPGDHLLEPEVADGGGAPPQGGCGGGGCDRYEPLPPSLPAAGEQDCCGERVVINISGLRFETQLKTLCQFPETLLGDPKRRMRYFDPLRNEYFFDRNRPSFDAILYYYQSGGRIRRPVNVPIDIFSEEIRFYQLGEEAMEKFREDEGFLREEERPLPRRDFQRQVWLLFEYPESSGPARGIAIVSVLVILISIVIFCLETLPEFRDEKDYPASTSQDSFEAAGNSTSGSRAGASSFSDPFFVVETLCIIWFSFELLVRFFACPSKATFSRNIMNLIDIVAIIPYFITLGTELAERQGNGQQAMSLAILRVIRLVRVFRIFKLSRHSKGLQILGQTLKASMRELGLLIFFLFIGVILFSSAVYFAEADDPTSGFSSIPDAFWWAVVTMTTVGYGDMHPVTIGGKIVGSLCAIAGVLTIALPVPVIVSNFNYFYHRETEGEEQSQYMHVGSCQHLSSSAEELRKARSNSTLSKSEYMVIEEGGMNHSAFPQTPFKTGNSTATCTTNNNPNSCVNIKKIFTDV

O=c1ccc2c(OCCCCOc3ccccc3)c3ccoc3cc2o1 [PAP-1, 5-(4-phenoxybutoxy)psoralen]
inhibition at 0.2 µM: 89.5 ± 2.8%

— PMC5374215, “Fludarabine Inhibits KV1.3 Currents in Human B Lymphocytes” (Frontiers in Pharmacology, 2017)
